How the values were obtained:
[1] = target: T1, Steroid 17-alpha-hydroxylase/17,20 lyase (Homo sapiens, UniProt P05093)
T1 sequence (P05093 whole entry): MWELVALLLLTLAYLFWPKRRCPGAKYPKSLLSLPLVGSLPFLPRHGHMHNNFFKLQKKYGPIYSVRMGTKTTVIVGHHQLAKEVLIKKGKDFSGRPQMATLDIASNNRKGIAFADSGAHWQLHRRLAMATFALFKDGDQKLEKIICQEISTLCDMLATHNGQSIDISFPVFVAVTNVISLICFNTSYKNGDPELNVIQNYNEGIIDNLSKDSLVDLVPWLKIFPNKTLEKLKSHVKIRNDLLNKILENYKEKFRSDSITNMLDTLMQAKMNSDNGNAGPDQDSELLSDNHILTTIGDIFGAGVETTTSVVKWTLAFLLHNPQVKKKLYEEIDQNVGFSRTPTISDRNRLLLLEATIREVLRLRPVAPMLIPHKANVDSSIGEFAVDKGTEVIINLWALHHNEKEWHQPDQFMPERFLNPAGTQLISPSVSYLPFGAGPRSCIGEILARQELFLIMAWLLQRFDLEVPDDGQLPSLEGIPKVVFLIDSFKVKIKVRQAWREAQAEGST
Description: Inhibition of human CYP17 expressed in Escherichia coli co-expressing rat NADPH-P450-reductase using progesterone as substrate

[2] = target: T2, Cytochrome P450 11B2, mitochondrial (Homo sapiens, UniProt P19099)
T2 sequence (P19099 whole entry): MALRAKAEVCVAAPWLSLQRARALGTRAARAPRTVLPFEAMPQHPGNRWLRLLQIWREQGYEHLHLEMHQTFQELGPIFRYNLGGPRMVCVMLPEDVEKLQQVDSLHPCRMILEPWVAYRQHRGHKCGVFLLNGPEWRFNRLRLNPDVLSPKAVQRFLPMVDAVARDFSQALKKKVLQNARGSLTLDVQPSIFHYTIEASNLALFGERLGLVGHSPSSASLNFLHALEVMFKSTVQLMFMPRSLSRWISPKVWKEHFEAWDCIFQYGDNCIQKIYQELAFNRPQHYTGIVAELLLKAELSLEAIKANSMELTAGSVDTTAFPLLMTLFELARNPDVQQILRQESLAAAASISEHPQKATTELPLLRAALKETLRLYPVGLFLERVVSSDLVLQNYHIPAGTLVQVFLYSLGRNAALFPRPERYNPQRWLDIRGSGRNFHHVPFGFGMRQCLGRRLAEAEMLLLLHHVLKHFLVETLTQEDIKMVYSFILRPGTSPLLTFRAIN
Description: Inhibition of human CYP11B2 expressed in hamster V79MZh cells using [1,2-3H]-11-deoxycorticosterone as substrate

Aromatase = target: T3, Aromatase (Homo sapiens, UniProt P11511)
T3 sequence (P11511 whole entry): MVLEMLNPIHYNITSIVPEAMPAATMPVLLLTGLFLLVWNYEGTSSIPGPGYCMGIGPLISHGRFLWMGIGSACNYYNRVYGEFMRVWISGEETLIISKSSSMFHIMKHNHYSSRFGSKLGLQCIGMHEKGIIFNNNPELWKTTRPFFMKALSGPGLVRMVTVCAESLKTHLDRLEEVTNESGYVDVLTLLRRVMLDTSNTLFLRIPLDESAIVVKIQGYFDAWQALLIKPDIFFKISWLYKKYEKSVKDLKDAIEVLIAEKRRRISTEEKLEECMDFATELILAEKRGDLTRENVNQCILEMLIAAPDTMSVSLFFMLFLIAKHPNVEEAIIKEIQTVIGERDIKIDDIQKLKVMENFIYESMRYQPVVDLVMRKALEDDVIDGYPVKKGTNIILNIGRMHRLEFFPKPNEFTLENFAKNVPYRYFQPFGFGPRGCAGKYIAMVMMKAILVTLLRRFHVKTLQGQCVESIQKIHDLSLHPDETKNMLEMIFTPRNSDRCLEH
Description: Inhibition of human placental CYP19 using [1beta-3H]androstenedione as substrate by 3H2O-method

[3] = target: T4, Cytochrome P450 11B1, mitochondrial (Homo sapiens, UniProt P15538)
T4 sequence (P15538 whole entry): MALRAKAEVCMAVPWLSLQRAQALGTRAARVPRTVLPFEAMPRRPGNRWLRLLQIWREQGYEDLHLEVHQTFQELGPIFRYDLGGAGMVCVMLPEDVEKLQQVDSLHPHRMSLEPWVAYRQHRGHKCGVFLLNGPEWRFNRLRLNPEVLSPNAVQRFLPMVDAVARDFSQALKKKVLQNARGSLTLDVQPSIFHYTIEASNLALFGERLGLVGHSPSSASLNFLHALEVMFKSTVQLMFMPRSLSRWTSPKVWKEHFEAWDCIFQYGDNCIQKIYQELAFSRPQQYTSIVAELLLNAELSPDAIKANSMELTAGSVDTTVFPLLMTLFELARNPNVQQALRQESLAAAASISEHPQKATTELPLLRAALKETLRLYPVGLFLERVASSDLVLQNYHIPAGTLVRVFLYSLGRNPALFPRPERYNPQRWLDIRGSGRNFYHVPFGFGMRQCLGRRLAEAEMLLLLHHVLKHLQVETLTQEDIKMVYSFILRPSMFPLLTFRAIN
Description: Inhibition of human CYP11B1 expressed in hamster V79MZh cells using [1,2-3H]-11-deoxycorticosterone as substrate

| SMILES | IC50 [1] | IC50 [2] | IC50 (Aromatase) | IC50 [3] |
| --- | --- | --- | --- | --- |
| CCOc1ccc(Cn2ccnc2)c2c(=O)c3ccccc3oc12 | > 5 µM | 0.0148 µM | 1.97 µM | 0.0254 µM |
| O=c1c2ccccc2oc2c(Br)ccc(Cn3ccnc3)c12 |  | 0.0085 µM |  | 0.0067 µM |
| O=c1c2ccccc2oc2c(Cl)ccc(Cn3ccnc3)c12 | 0.26 µM | 0.003 µM | 0.48 µM | 0.0005 µM |
| CCC(C)Oc1ccc(Cn2ccnc2)c2c(=O)c3ccccc3oc12 (configuration not stated) | > 5 µM | 0.0153 µM | 0.575 µM | 0.0131 µM |
| O=c1c2ccccc2oc2c(O)ccc(Cn3ccnc3)c12 | 0.493 µM | 0.235 µM | 0.17 µM | 0.416 µM |
| CC(C)Oc1ccc(Cn2ccnc2)c2c(=O)c3ccccc3oc12 | 1.25 µM | 0.0191 µM | 0.4 µM | 0.0925 µM |
| CC(C)CCOc1ccc(Cn2ccnc2)c2c(=O)c3ccccc3oc12 | > 5 µM | 0.0252 µM | 0.837 µM | 0.0244 µM |
| O=c1c2ccccc2oc2c(OC3CCCC3)ccc(Cn3ccnc3)c12 | > 5 µM | 0.0997 µM | 0.26 µM | 0.268 µM |
| O=c1c2ccccc2oc2c(OCC3CC3)ccc(Cn3ccnc3)c12 | > 5 µM | 0.0241 µM | 0.565 µM | 0.0055 µM |
| O=c1c2ccccc2oc2c([N+](=O)[O-])ccc(Cn3ccnc3)c12 |  | 0.0311 µM |  | 0.0223 µM |
| N#Cc1ccc(Cn2ccnc2)c2c(=O)c3ccccc3oc12 |  | 0.0195 µM |  | 0.0134 µM |
| Nc1ccc(Cn2ccnc2)c2c(=O)c3ccccc3oc12 | 1.74 µM | 0.676 µM | 6.39 µM | 0.785 µM |
| O=c1c2ccccc2oc2c(I)ccc(Cn3ccnc3)c12 | 1.35 µM | 0.0235 µM | 0.46 µM | 0.0192 µM |
| COc1ccc(Cn2ccnc2)c2c(=O)c3ccccc3oc12 | 0.61 µM | 0.0411 µM | 1.1 µM | 0.0801 µM |
| O=c1c2ccccc2oc2cccc(Cn3ccnc3)c12 |  | 0.114 µM |  | 0.0991 µM |
| O=c1c2ccccc2oc2c(-c3ccccc3)ccc(Cn3ccnc3)c12 | 1.89 µM | 0.104 µM | 0.3 µM | 0.156 µM |
| C[C@]12CC[C@H](O)CC1=CC[C@@H]1[C@@H]2CC[C@]2(C)C(c3cccnc3)=CC[C@@H]12 [ABIRATERONE] |  |  | > 5 µM |  |

Reference: ChEMBL document CHEMBL2331307, “Modulation of cytochromes P450 with xanthone-based molecules: from aromatase to aldosterone synthase and steroid 11β-hydroxylase inhibition” (J Med Chem, 2013)
